Series [1] has as its system SMN2 minigene (full length SMN2 minigene mRNA containing SMN2 exon 7). In words: SMN2 minigene mRNA splicing RT-qPCR assay in cultured cells. In kind it is cell-based, human. The following applies: Homo sapiens, HEK293-H; HEK293H cells stably transfected with SMN2-A minigene; 24 hours; 7-point concentration curve; 1.5-fold relative to vehicle-treated cells; read-out: EC1.5x for production of full length SMN2 mRNA. The essentials:
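Lysates → one-step RT-qPCR, minigene-specific primers (0.4 μM final) + GAPDH multiplex, 40 cycles. FL/GAPDH vs DMSO; EC1.5x, star-binned.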
(Quantitative PCR measures a nucleic acid by following its amplification.)

The test system of a further series is Smn protein. In words: Smn protein assay in cultured cells (SMN HTRF). The following applies: 48 hours; for EC1.5x (concentration giving 1.5-fold Smn protein increase): SMA Type 1 patient fibroblast cells (GM03813), 7-point concentration curve, SMN HTRF, concentration producing 1.5 times Smn protein vs DMSO vehicle control, read-out: EC1.5x for Smn protein expression; for maximum fold (Fold) increase of Smn protein: SMA patient fibroblast cells, 7-point concentration data, fold increase relative to vehicle control (SMN HTRF). In kind it is cell-based, human. In short, it runs like this: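 Smn in SMA fibroblast lysates, measured by anti-SMN HTRF after 48 h compound exposure; EC1.5x from fold change over vehicle.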
On the technique in general: Time-resolved FRET reads energy transfer from a long-lived donor to a nearby acceptor.

As to `Cc1cn2cc(-c3cc4ccc(N5CCC(N(C)C)CC5)cc4oc3=O)nc2c(C)n1` [Compound 921, 7-[4-(dimethylamino)piperidin-1-yl]-3-(6,8-dimethylimidazo[1,2-a]pyrazin-2-yl)-2H-chromen-2-one], the melting point – broadly, the temperature of the solid-liquid transition – was 189 to 193 °C. For the same molecule, in series [1], the EC (1.5-fold) was less than 0.1 µM. In the series on Smn protein, the EC1.5x (concentration giving 1.5-fold Smn protein increase) was less than 300 nM; the “maximum fold (Fold) increase of Smn protein” value (“maximum fold (Fold) increase” below) is “**** (fold increase between >1.5 and ≤1.65)”.

Turning to `Cc1cn2cc(-c3cc4ccc(N5CC[C@@H](N(C)C)C5)cc4oc3=O)cc2cn1` [Compound 693, 7-[(3R)-3-(dimethylamino)pyrrolidin-1-yl]-3-(3-methylpyrrolo[1,2-a]pyrazin-7-yl)-2H-chromen-2-one], the melting point fell in the range of 206 to 208 °C. Further, in series [1], the EC (1.5-fold) was less than 0.1 µM. Besides, in the series on Smn protein, the EC1.5x (concentration giving 1.5-fold Smn protein increase) was in the range of 300 to 1000 nM; the “maximum fold (Fold) increase” value is “**** (fold increase between >1.5 and ≤1.65)”.

`CCc1cc(C)cn2cc(-c3cc4ccc(N5C[C@@H](C)N[C@@H](C)C5)cc4oc3=O)nc12` [Compound 341, 7-[(3R,5S)-3,5-dimethylpiperazin-1-yl]-3-(8-ethyl-6-methylimidazo[1,2-a]pyridin-2-yl)-2H-chromen-2-one] came in with a melting point of 203 to 208 °C. The EC (1.5-fold) in series [1] lay within 0.3 to 1 µM. Moreover, the “maximum fold (Fold) increase” value in the series on Smn protein was “* (maximum fold increase of ≤1.2)”.

`CN1CCN(c2ccc3cc(-c4cn5cc(F)cnc5n4)c(=O)oc3c2)CC1` [Cpd 480, 3-(6-fluoroimidazo[1,2-a]pyrimidin-2-yl)-7-(4-methylpiperazin-1-yl)-2H-chromen-2-one] yielded a melting point of 275 to 280 °C. Also, the EC (1.5-fold) in series [1] lay within 3 to 30 µM. Also, the “maximum fold (Fold) increase” value in the series on Smn protein is recorded as “* (maximum fold increase of ≤1.2)”.

On to `Cc1cn2cc(-c3cc4ccc(CCCN(C)C)cc4oc3=O)nc2c(C)n1` [Compound 857, 7-[3-(dimethylamino)propyl]-3-(6,8-dimethylimidazo[1,2-a]pyrazin-2-yl)-2H-chromen-2-one], for which the melting point was in the range of 194 to 196 °C. In addition, the EC (1.5-fold) in series [1] was less than 0.1 µM. Moreover, in the series on Smn protein, the EC1.5x (concentration giving 1.5-fold Smn protein increase) was less than 300 nM and the “maximum fold (Fold) increase” value is recorded as “***** (fold increase >1.65)”.

Take `Cc1csc(-c2cc3ccc(N4C[C@@H](C)N[C@@H](C)C4)cc3oc2=O)n1` [Compound 286, 7-[(3R,5S)-3,5-dimethylpiperazin-1-yl]-3-(4-methyl-1,3-thiazol-2-yl)-2H-chromen-2-one]: the melting point lay in the range of 178 to 183 °C. In addition, the EC (1.5-fold) in series [1] is 1 to 3 µM. Besides, in the series with Smn protein, the “maximum fold (Fold) increase” value is reported as “* (maximum fold increase of ≤1.2)”.

`O=c1oc2cc(N3CCCNCC3)ccc2cc1-c1cn2ccncc2n1` [Compound 454, 7-(1,4-diazepan-1-yl)-3-(imidazo[1,2-a]pyrazin-2-yl)-2H-chromen-2-one] showed a melting point of 247 to 249 °C. For the same molecule, the EC (1.5-fold) in series [1] is less than 0.1 µM. In addition, in the series on Smn protein, the EC1.5x (concentration giving 1.5-fold Smn protein increase) lay in the range of 3000 to 10000 nM; the “maximum fold (Fold) increase” value is “*** (fold increase between >1.35 and ≤1.5)”.

As for `Cl.O=c1oc2cc(N3CCNCC3)ccc2cc1-c1nc2c(Cl)cccc2o1` [Compound 70, 3-(4-chloro-1,3-benzoxazol-2-yl)-7-(piperazin-1-yl)-2H-chromen-2-one hydrochloride], the melting point fell in the range of 278 to 282 °C. Further, the EC (1.5-fold) in series [1] was in the range of 0.3 to 1 µM. Moreover, the “maximum fold (Fold) increase” value in the series on Smn protein is recorded as “* (maximum fold increase of ≤1.2)”.

On to `Cc1ccn2cc(-c3cc4ccc(N[C@H]5CCNC5)cc4oc3=O)nc2c1` [Compound 581, 3-(7-methylimidazo[1,2-a]pyridin-2-yl)-7-[(3S)-pyrrolidin-3-ylamino]-2H-chromen-2-one], for which the melting point was 243 to 253 °C. In addition, the EC (1.5-fold) in series [1] is 0.3 to 1 µM. The “maximum fold (Fold) increase” value in the series on Smn protein is “* (maximum fold increase of ≤1.2)”.

`COc1ccc(-c2cc3c(F)cc(N4C[C@@H]5C[C@H]4CN5)cc3oc2=O)cc1OC` [Compound 446, 7-[(1S,4S)-2,5-diazabicyclo[2.2.1]hept-2-yl]-3-(3,4-dimethoxyphenyl)-5-fluoro-2H-chromen-2-one] returned a melting point of 239 to 241 °C. Also, in series [1], the EC (1.5-fold) fell in the range of 3 to 30 µM. Besides, the “maximum fold (Fold) increase” value with Smn protein is reported as “* (maximum fold increase of ≤1.2)”.

On to `Cc1cn2cc(-c3cc4ccc(N5C[C@H]6CNC[C@H]6C5)cc4oc3=O)nc2cn1` [Compound 718, 7-[(3aR,6aS)-hexahydropyrrolo[3,4-c]pyrrol-2(1H)-yl]-3-(6-methylimidazo[1,2-a]pyrazin-2-yl)-2H-chromen-2-one], for which the melting point was 282 to 292 °C. The EC (1.5-fold) in series [1] was less than 0.1 µM. Also, in the series on Smn protein, the EC1.5x (concentration giving 1.5-fold Smn protein increase) was less than 300 nM; the “maximum fold (Fold) increase” value is “**** (fold increase between >1.5 and ≤1.65)”.

In the case of `C[C@@H]1CN(c2ccc3cc(-c4cn5ccc(C(F)(F)F)cc5n4)c(=O)oc3c2)C[C@H](C)N1` [Compound 116, 7-[(3R,5S)-3,5-dimethylpiperazin-1-yl]-3-[7-(trifluoromethyl)imidazo[1,2-a]pyridin-2-yl]-2H-chromen-2-one], the melting point lay within 257 to 264 °C. The EC (1.5-fold) in series [1] was in the range of 0.3 to 1 µM. In addition, in the series with Smn protein, the “maximum fold (Fold) increase” value was “** (fold increase between >1.2 and ≤1.35)”.

In the case of `Cc1cn2cc(-c3cc4ccc(OC5CCN(C(CO)CO)CC5)cc4oc3=O)nc2c(C)n1` [Compound 915, 7-{[1-(1,3-dihydroxypropan-2-yl)piperidin-4-yl]oxy}-3-(6,8-dimethylimidazo[1,2-a]pyrazin-2-yl)-2H-chromen-2-one], the melting point lay within 206 to 210 °C. Moreover, the EC (1.5-fold) in series [1] is less than 0.1 µM. In addition, in the series with Smn protein, the EC1.5x (concentration giving 1.5-fold Smn protein increase) was 300 to 1000 nM; the “maximum fold (Fold) increase” value was “**** (fold increase between >1.5 and ≤1.65)”.

`Cc1cccc(Nc2cc3ccc(N4CCNCC4)cc3oc2=O)n1` [Compound 64, 3-[(6-methylpyridin-2-yl)amino]-7-(piperazin-1-yl)-2H-chromen-2-one] gave a melting point of 135 to 137 °C. Besides, in series [1], the EC (1.5-fold) lay within 1 to 3 µM. In addition, in the series on Smn protein, the “maximum fold (Fold) increase” value is reported as “* (maximum fold increase of ≤1.2)”.

For `Cc1ccn2cc(-c3cc4ccc(NCCCN(C)C)cc4oc3=O)nc2c1` [Compound 475, 7-{[3-(dimethylamino)propyl]amino}-3-(7-methylimidazo[1,2-a]pyridin-2-yl)-2H-chromen-2-one], the melting point was 165 to 170 °C. For the same molecule, the EC (1.5-fold) in series [1] was in the range of 3 to 30 µM. The “maximum fold (Fold) increase” value in the series on Smn protein is recorded as “* (maximum fold increase of ≤1.2)”.

The molecule `COc1cccc(-c2cc3ccc(N4CCNCC4)cc3oc2=O)n1` [Cpd 218, 3-(6-methoxypyridin-2-yl)-7-(piperazin-1-yl)-2H-chromen-2-one] showed a melting point of 162 to 165 °C. The EC (1.5-fold) in series [1] is 0.3 to 1 µM. For the same molecule, the “maximum fold (Fold) increase” value with Smn protein is “** (fold increase between >1.2 and ≤1.35)”.

In turn, `Cc1csc(-c2cc3ccc(N4CCCN(C)CC4)cc3oc2=O)n1` [Compound 285, 7-(4-methyl-1,4-diazepan-1-yl)-3-(4-methyl-1,3-thiazol-2-yl)-2H-chromen-2-one] returned a melting point of 190 to 200 °C. Further, the EC (1.5-fold) in series [1] lay within 1 to 3 µM. Moreover, the “maximum fold (Fold) increase” value in the series on Smn protein is “* (maximum fold increase of ≤1.2)”.

These data come from patent USRE47689E1, “Compounds for treating spinal muscular atrophy” (PTC Therapeutics, Inc., priority 2011, dated 2019).
